Data published in patent US20230372525A1, “TRANSGLUTAMINASE CONJUGATION METHOD WITH AMINO ACID-BASED LINKERS” (ARARIS BIOTECH AG, priority 2020, published 2023).
[ ]: non-standard residue; d: D form. The star is where a group is joined. N3 = [N-]=[N+]=N*; βAla = NCCC(=O)O

What was measured:
[1] = test system: native, glycosylated antibody trastuzumab (anti Her2 IgG); assay: MTG-mediated conjugation of peptide linkers to native glycosylated trastuzumab, conjugation efficiency by LC-MS under reducing conditions; assay type: biochemical; settings: for Conjugation efficiency (%) to antibody: trastuzumab 5 mg/mL, 20 molar equivalents linker, 50 mM Tris pH 7.6; for Conjugation efficiency (%) to antibody / Conjugation efficiency (%) Trastuzumab with conditions 3: MTG 3 U/mg, 24 hours at 37° C.; for Conjugation efficiency (%) antibody with conditions 2: conditions 2: trastuzumab 1 mg/mL, MTG 6 U/mg, 80 molar equivalents linker, 20 hours at 37° C.; for Conjugation efficiency (%) Trastuzumab with conditions 3: conditions 3: 5 mg/mL antibody, 5 molar equivalents linker
Protocol: (§1) Linkers are used as obtained and dissolved at a suitable stock concentration (e.g. 25 mM) following the manufacturers instruction, aliquots are prepared and stored at −20° C. Two antibodies of IgG-subclass (antibody 1: anti Her2 IgG1, antibody 2: anti CD38 IgG1) are modified as follows: 5 mg/mL of non-deglycosylated antibody (˜33.33 μM) is mixed with 20 molar equivalents of amino acid-based linker (i.e. ˜667 μM), 3 U/mg of antibody and a suitable buffer. The reaction mixture is incubated for 20 h at 37° C. and then subjected for LC-MS analysis under reducing conditions. Other reaction conditions have been used as indicated in the corresponding example.
(§2) For conjugation of the peptide linkers (see FIG. 2 for structures), 5 mg/mL of native, glycosylated monoclonal antibody in 50 mM Tris pH 7.6, microbial transglutaminase (MTG, Zedira) at a concentration of 3 U/mg in 50 mM Tris pH 7.6 or water, and 20 molar equivalents of the indicated peptide linker were used and incubated for 24 hours at 37° C. in a rotating thermomixer. Conjugation efficiency was assessed by LC-MS under DTT reduced conditions. Reduction of samples was achieved by incubation of antibody-linker-conjugates (ALCs) for 15 min at 37° C. in 50 mM DTT (final) and 50 mM Tris buffer. Probes were analyzed on a Xevo G2-XS QTOF (Waters) coupled to an Acquity UPLC H-Class System (Waters) and an ACQUITY UPLC BEH C18 Column. Conjugation efficiency (CE) was calculated from deconvoluted spectra and presented in %. Intensities resulting from both glycoforms (G1F and G0F) were taken into account for the calculation, according to the formula: […]
For conjugation of the peptide linkers (see FIG. 2 for structures), 1 mg/mL of native, glycosylated monoclonal antibody in 50 mM Tris pH 7.6, microbial transglutaminase (MTG, Zedira) at a concentration of 6 U/mg in 50 mM Tris pH 7.6 or water, and 80 molar equivalents of the indicated peptide linker were used and incubated for 20 hours at 37° C. in a rotating thermomixer. These are defined as “conditions 2”. Conjugation efficiency was assessed by LC-MS under DTT reduced conditions. Reduction of samples was achieved by incubation of antibody-linker-conjugates (ALCs) for 15 min at 37° C. in 50 mM DTT (final) and 50 mM Tris buffer. Probes were analyzed on a Xevo G2-XS QTOF (Waters) coupled to an Acquity UPLC H-Class System (Waters) and a ACQUITY UPLC BEH C18 Column. Conjugation efficiency (CE) was calculated from deconvoluted spectra and presented in %. Intensities resulting from both glycoforms (G1F and G0F) were taken into account for the calculation, according to the formula: […]
(§3) For conjugation of the peptide linkers (see FIG. 2 for structures), 5 mg/mL of native, glycosylated monoclonal antibody in 50 mM Tris pH 7.6, microbial transglutaminase (MTG, Zedira) at a concentration of 3 U/mg in 50 mM Tris pH 7.6 or water, and 5 molar equivalents of the indicated peptide linker were used and incubated for 24 hours at 37° C. in a rotating thermomixer. These are defined as “conditions 3”. Conjugation efficiency was assessed by LC-MS under DTT reduced conditions. Reduction of samples was achieved by incubation of antibody-linker-conjugates (ALCs) for 15 min at 37° C. in 50 mM DTT (final) and 50 mM Tris buffer. Probes were analyzed on a Xevo G2-XS QTOF (Waters) coupled to an Acquity UPLC H-Class System (Waters) and a ACQUITY UPLC BEH C18 Column. Conjugation efficiency (CE) was calculated from deconvoluted spectra and presented in %. Intensities resulting from both glycoforms (G1F and G0F) were taken into account for the calculation, according to the formula: […]

[2] = target: DNA-dependent RNA polymerase II (Homo sapiens, UniProt P24928); settings: read-out: KD of the complex between amanitin and RNA-polymerase II; cited from earlier work
[3] = test system: native, glycosylated antibody daratumumab (anti CD38 IgG); assay: MTG-mediated conjugation of peptide linkers to native glycosylated daratumumab, conjugation efficiency by LC-MS under reducing conditions; assay type: biochemical; settings: MTG 3 U/mg, 24 hours at 37° C.; for Conjugation efficiency (%) Daratumumab with conditions 3: conditions 3: 5 mg/mL antibody, 5 molar equivalents linker; for Conjugation efficiency (%) to antibody: daratumumab 5 mg/mL, 20 molar equivalents linker, 50 mM Tris pH 7.6
Protocol: as §1, §2, §3

various tumor cell lines = settings: cited from earlier work

VGRC-NH2 [reference compound]
Conjugation efficiency (%) to antibody [1]: 0%

amanitin
Kd [2]: 3 nM

NH2-C2-GRK(N3)-NH2 (H-[βAla]GRK(N3)-NH2) [NT37]
Conjugation efficiency (%) antibody with conditions 2 [1]: 38% | Conjugation efficiency (%) to antibody [1]: 70%

NH2-C1-ARK(N3)-NH2 (GARK; HELM PEPTIDE1{G.A.R.[[N-]=[N+]=NCCCC[C@H](N[*:1])C(=O)[*:2]].[am]}$$$$V2.0; SMILES C[C@H](NC(=O)CN)C(=O)N[C@@H](CCCNC(=N)N)C(=O)N[C@@H](CCCCN=[N+]=[N-])C(N)=O) [NT28]
Conjugation efficiency (%) to antibody [1]: 89%

NH2-C5-GRK(N3)-NH2 [NT36]
Conjugation efficiency (%) Daratumumab with conditions 3 [3]: 72% | Conjugation efficiency (%) to antibody [3]: 93% | Conjugation efficiency (%) antibody with conditions 2 [1]: 56% | Conjugation efficiency (%) Trastuzumab with conditions 3 [1]: 75% | Conjugation efficiency (%) to antibody [1]: 84%

NH2-C4-ValCit-NH2 [NT39]
Conjugation efficiency (%) antibody with conditions 2 [1]: 63% | Conjugation efficiency (%) to antibody [1]: 67%

NH2-C6-AspArg-NH2 [NT66]
Conjugation efficiency (%) to antibody [3]: 66% | Conjugation efficiency (%) to antibody [1]: 64%

NH2-C6-ThrArg-NH2 [NT64]
Conjugation efficiency (%) Daratumumab with conditions 3 [3]: 92% | Conjugation efficiency (%) to antibody [3]: 93% | Conjugation efficiency (%) Trastuzumab with conditions 3 [1]: 92% | Conjugation efficiency (%) to antibody [1]: 95%

NH2-C4-ValArg-NH2 [NT40]
Conjugation efficiency (%) Daratumumab with conditions 3 [3]: 51% | Conjugation efficiency (%) to antibody [3]: 89% | Conjugation efficiency (%) antibody with conditions 2 [1]: 83% | Conjugation efficiency (%) Trastuzumab with conditions 3 [1]: 58% | Conjugation efficiency (%) to antibody [1]: 96%

NH2-C3-GRK(N3)-NH2 [NT38]
Conjugation efficiency (%) antibody with conditions 2 [1]: 36% | Conjugation efficiency (%) to antibody [1]: 53%

LGRC-NH2 [reference compound]
Conjugation efficiency (%) to antibody [1]: 0%

NH2-C6-TrpArg-NH2 [NT67]
Conjugation efficiency (%) to antibody [3]: 83% | Conjugation efficiency (%) to antibody [1]: 82%

CC[C@H](C)[C@H](NC(=O)[C@H]1CCCCN1C)C(=O)N(COC(=O)CC(C)C)[C@H](C[C@@H](OC(C)=O)c1nc(C(=O)N[C@@H](Cc2ccc(O)cc2)C[C@H](C)C(=O)O)cs1)C(C)C [Tubulysin A]
IC50, cytostatic effects on various tumor cell lines (various tumor cell lines): picomolar range

NH2-C6-IleArg-NH2 [NT65]
Conjugation efficiency (%) Daratumumab with conditions 3 [3]: 79% | Conjugation efficiency (%) to antibody [3]: 95% | Conjugation efficiency (%) Trastuzumab with conditions 3 [1]: 78% | Conjugation efficiency (%) to antibody [1]: 96%

NH2-C1-GRK(N3)-NH2 (GGRK; HELM PEPTIDE1{G.G.R.[[N-]=[N+]=NCCCC[C@H](N[*:1])C(=O)[*:2]].[am]}$$$$V2.0; SMILES [N-]=[N+]=NCCCC[C@H](NC(=O)[C@H](CCCNC(=N)N)NC(=O)CNC(=O)CN)C(N)=O) [NT24]
Conjugation efficiency (%) Daratumumab with conditions 3 [3]: 89% | Conjugation efficiency (%) to antibody [3]: 95% | Conjugation efficiency (%) antibody with conditions 2 [1]: 78% | Conjugation efficiency (%) Trastuzumab with conditions 3 [1]: 97% | Conjugation efficiency (%) to antibody [1]: 99%

RGRK(N3)-NH2 [reference compound]
Conjugation efficiency (%) to antibody [1]: 0%

SAGRK(N3)-NH2 [reference compound]
Conjugation efficiency (%) to antibody [1]: 0%

NH2-C4-GRK(N3)-NH2 [NT41]
Conjugation efficiency (%) Daratumumab with conditions 3 [3]: 88% | Conjugation efficiency (%) to antibody [3]: 98% | Conjugation efficiency (%) antibody with conditions 2 [1]: 70% | Conjugation efficiency (%) Trastuzumab with conditions 3 [1]: 88% | Conjugation efficiency (%) to antibody [1]: 99%

NH2-C5-ValArg-NH2 [NT44]
Conjugation efficiency (%) Daratumumab with conditions 3 [3]: 73% | Conjugation efficiency (%) to antibody [3]: 95% | Conjugation efficiency (%) antibody with conditions 2 [1]: 88% | Conjugation efficiency (%) Trastuzumab with conditions 3 [1]: 77% | Conjugation efficiency (%) to antibody [1]: 100%

NH2-C5-ValCit-NH2 [NT43]
Conjugation efficiency (%) antibody with conditions 2 [1]: 79% | Conjugation efficiency (%) to antibody [1]: 83%

NH2-C6-GRK(N3)-NH2 [NT42]
Conjugation efficiency (%) antibody with conditions 2 [1]: 38% | Conjugation efficiency (%) to antibody [1]: 67%

AARK(N3)-NH2 [reference compound]
Conjugation efficiency (%) to antibody [1]: 0%
